# Results published in patent publication EP1170007A1, “REMEDIES” (Takara Shuzo Co, Ltd., priority 1999, dated 2000).
# What was measured:
# [1] = system: human insulin-like growth factor-1 (h-IGF-1) production in Hs68 cells; experiment: Enhancement of h-IGF-1 production in Hs68 cells (ELISA); assay type: cell-based
# Method: (1) Human newborn foreskin […] Hs68 cells (ATCC CRL-1635) were cultured in a D-MEM medium (Bio Whittaker) containing 10% fetal calf serum (FBS; Gibco BRL) in the presence of 5% CO2 at 37°C to saturation in a culture vessel. Then, the cells were suspended in the medium at a concentration of 3 x 10^5/ml using a trypsin-EDTA solution (Bio Whittaker). 200 µl of the suspension was dispensed into each well of a 96-well microtiter plate. When the cells were almost saturated in the culture vessel after culturing for 5 days, the medium was discarded and a medium containing 4HCP at a concentration of 40, 100 or 200 µM was added thereto. The culture supernatant was recovered at intervals of 24 hours for up to 96 hours. The effect of 4HCP on enhancement of human insulin-like growth factor-1 (h-IGF-1) production in Hs68 cells was determined using ELISA-Kit for h-IGF-1 (Diagnostic System Labo).
# (2) Hs68 cells were cultured in a D-MEM medium containing 10% fetal calf serum in the presence of 5% CO2 at 37°C to saturation in a culture vessel. Then, the cells were suspended in the medium at a concentration of 3 x 10^5/ml using a trypsin-EDTA solution. 200 µl of the suspension was dispensed into each well of a 96-well microtiter plate. When the cells were almost saturated in the culture vessel after culturing for 5 to 7 days, the medium was discarded and the medium containing cyclopentenone or GM at a concentration of 0, 2.5, 5, 10 or 20 µM was added thereto. The culture supernatant was recovered at 1, 3, 6, 12, 24 or 48 hours. The effect of cyclopentenone or GM on the production (enhancement of expression) of h-IGF-1 in Hs68 cells was determined using ELISA-Kit for h-IGF-1. […] The amount of h-IGF-1 produced 6 hours after the addition was about twice the amount for the control with no addition. […] (3) Hs68 cells were cultured in a D-MEM medium containing 10% fetal calf serum in the presence of 5% CO2 at 37°C to saturation in a culture vessel. Then, the cells were suspended in the medium at a concentration of 3 x 10^5/ml using a trypsin-EDTA solution. 200 µl of the suspension was dispensed into each well of a 96-well microtiter plate. When the cells were almost saturated in the culture vessel after culturing for 5 to 7 days, the medium was discarded and the medium containing 4HCP, a compound of formula (XVIII) (4HCP-GSH) or glutathione (GSH) at a concentration of 0, 25, 50, 100 or 200 µM was added thereto. The culture supernatant was recovered at 1, 3, 6, 12, 24 or 48 hours. The effect on the production (enhancement of expression) of h-IGF-1 in Hs68 cells was determined using ELISA-Kit for h-IGF-1. As a result, when 4HCP was added at a concentration of 25 to 200 µM, h-IGF production in Hs68 cells became maximal at 1 hour and decreased thereafter as the time went by. […] Significant enhancement of h-IGF-1 production was observed when cultured for 10 to 30 minutes. […]
# mouse = experiment: Single oral dose toxicity in mouse; assay type: in vivo
# [2] = system: HGF production, MRC-5 cells; experiment: Enhancement of HGF production in MRC-5 cells (ELISA); assay type: cell-based, Human; conditions: 24 hours, negative control defined as 100% (7.2 ng/ml)
# Method: MRC-5 cells (CCL171, Dainippon Pharmaceutical) were suspended in a DME medium (Bio Whittaker) containing 10% fetal calf serum at a concentration of 1 x 10^5 cells/ml. 500 µl of the suspension was placed into a 48-well cell culture plate. After culturing at 37°C in the presence of 5% CO2 for 24 hours, the medium was exchanged for a DME medium containing 1% fetal calf serum. Then, one of samples was added thereto. The plate was incubated for additional 24 hours. The medium was then recovered, and the amount of HGF in the culture medium was measured using Quantikine Human Hepatocyte Growth Factor (HGF) ELISA Kit (Funakoshi). The amount of HGF produced was expressed defining a negative control as 100%. In this case, the amount of HGF produced for the negative control was 7.2 ng/ml. Cyclopentenone (at a final concentration of 20, 40 or 160 µM), GM (at a final concentration of 20, 40, 80 or 160 µM), or dipropionylcyclopentenone (at a final concentration of 32 or 64 µM) was added as a sample. As a negative control, distilled water was added in the same volume as the sample. As a positive control, prostaglandin E1 was added at a final concentration of 0.01, 0.1, 1 or 10 µM.
# [3] = system: nerve growth factor production by L-M cells; experiment: Enhancement of nerve growth factor production in L-M cells (enzyme immunoassay); assay type: cell-based, Rat
# Method: Rat fibroblast L-M cells (ATCC CCL-1.2) were suspended in a M199 medium (Gibco) containing 0.5% Bacto Peptone (Gibco) at a concentration of 1.0 x 10^5 cells/ml. 1 ml of the suspension was inoculated into each well of a 24-well plate. The cells were cultured aseptically. After culturing for 2 days, the medium was removed and substituted with a M199 medium containing 0.5% bovine serum albumin (Sigma). Then, cyclopentenone (final concentration of 1 to 25 µM), 4HCP (Aldrich) (final concentration of 12.5µM) or dipropionylcyclopentenone (final concentration of 3.1 to 9.4 µM) was added thereto. […]
# After completion of the incubation, the concentration of nerve growth factor in the culture was measured by enzyme immunoassay (NGF Emax Immuno Assay System: Promega). […]
# [4] = Example 3-(3): 100 µM, cultivation time 1 hour, control 7.2
# [5] = Example 3-(3): 100 µM, cultivation time 3 hour, control 8.9
# [6] = Example 3-(3): 100 µM, cultivation time 6 hour, control 6.3
# [7] = Example 3-(3): 100 µM, cultivation time 12 hour, control 0
# [8] = Example 3-(3): 100 µM, cultivation time 24 hour, control 0
# [9] = Example 3-(3): 100 µM, cultivation time 48 hour, control 0
# [10] = Example 3-(3): 200 µM, cultivation time 1 hour, control 7.2
# [11] = Example 3-(3): 200 µM, cultivation time 3 hour, control 8.9
# [12] = Example 3-(3): 200 µM, cultivation time 6 hour, control 6.3
# [13] = Example 3-(3): 200 µM, cultivation time 12 hour, control 0
# [14] = Example 3-(3): 200 µM, cultivation time 24 hour, control 0
# [15] = Example 3-(3): 200 µM, cultivation time 48 hour, control 0
# [16] = single dose orally administered to a mouse at 100 mg/kg
compound,measurement,setting,value
NC(CCC(=O)NC(CSC1CC(=O)CC1O)C(=O)NCC(=O)O)C(=O)O (stereo not shown) [4HCP-GSH],Activity of enhancing IGF-1 production,[1]; [4],8.4 ng/mL
same,Activity of enhancing IGF-1 production,[1]; [5],12 ng/mL
same,Activity of enhancing IGF-1 production,[1]; [6],10.6 ng/mL
same,Activity of enhancing IGF-1 production,[1]; [7],6.1 ng/mL
same,Activity of enhancing IGF-1 production,[1]; [8],6.7 ng/mL
same,Activity of enhancing IGF-1 production,[1]; [9],1.4 ng/mL
same,Activity of enhancing IGF-1 production,[1]; [10],33.3 ng/mL
same,Activity of enhancing IGF-1 production,[1]; [11],37.9 ng/mL
same,Activity of enhancing IGF-1 production,[1]; [12],24.7 ng/mL
same,Activity of enhancing IGF-1 production,[1]; [13],20.4 ng/mL
same,Activity of enhancing IGF-1 production,[1]; [14],20.9 ng/mL
same,Activity of enhancing IGF-1 production,[1]; [15],27.8 ng/mL
same,activity of enhancing h-IGF-1 (result in words),[1]; Example 3-(3): 100 to 200 µM,exhibit an activity of enhancing h-IGF-1 in a concentration-dependent manner
"CC(C)(C)OC1C=CC(=O)C1OC(C)(C)C (stereo not shown) [4,5-di-t-butylcyclopentenone ether]",death after single oral dose,"mouse; mouse, in vivo, po, 100 mg/kg",no example of death was observed
"N[C@@H](CCC(=O)N[C@@H](CS)C(=O)NCC(=O)O)C(=O)O [glutathione, reference compound]",activity of enhancing h-IGF-1 (result in words),"[1]; Example 3-(3): glutathione alone added, 25 to 200 µM",no significant activity of enhancing h-IGF-1 was observed
CCCCCC(=O)OC1C=CC(=O)C1OC(=O)CCCCC (stereo not shown) [dihexanoylcyclopentenone],death after single oral dose,mouse; [16],no example of death was observed
di-2-hexenoylcyclopentenone,death after single oral dose,mouse; [16],no example of death was observed
"N[C@@H](CCC(=O)N[C@@H](CSC1C=C(O)C(=O)C1)C(=O)NCC(=O)O)C(=O)O (stereo partly shown) [GM, 2-hydroxy-4-glutathion-S-yl-2-cyclopenten-1-one]",death after single oral dose,"mouse; mouse, in vivo, po, 100 mg/kg",no example of death was observed
same,Increase in HGF production,[2]; 20 µM,154%
same,Increase in HGF production,[2]; 40 µM,179%
same,Increase in HGF production,[2]; 80 µM,243%
same,Increase in HGF production,[2]; 160 µM,319%
same,production of h-IGF-1 in Hs68 cells (result in words),[1]; Example 3-(2): 10 to 20 µM,production of h-IGF in Hs68 cells was observed 3 hours after the addition
same,amount of h-IGF-1 produced relative to the control with no addition,"[1]; Example 3-(2): 10 to 20 µM, 6 hours after the addition",about twice
"O=C1C=CC(O)C1 (stereo not shown) [4HCP, 4-hydroxy-2-cyclopenten-1-one]",Nerve growth factor concentration,"[3]; 12.5 µM, 24 hours, 0 µM control 0.138 (Table 2)",0.327 ng/mL
same,production of nerve growth factor by L-M cells (result in words),[3]; 24 hours incubation,enhanced the production of nerve growth factor by L-M cells in a concentration-dependent manner
same,death after single oral dose,"mouse; mouse, in vivo, po, 100 mg/kg",no example of death was observed
same,Activity of enhancing h-IGF-1 production,"[1]; Example 3-(1): 40 µM, cultivation time 24 hour, control 0",0 ng/mL
same,Activity of enhancing h-IGF-1 production,"[1]; Example 3-(1): 40 µM, cultivation time 48 hour, control 0",0 ng/mL
same,Activity of enhancing h-IGF-1 production,"[1]; Example 3-(1): 40 µM, cultivation time 72 hour, control 0",0 ng/mL
same,Activity of enhancing h-IGF-1 production,"[1]; Example 3-(1): 40 µM, cultivation time 96 hour, control 0",0 ng/mL
same,time at which the activity of enhancing h-IGF production in Hs68 cells became maximal,"[1]; Example 3-(1): 100 µM or more, sampled at 24, 48, 72, 96 hours",24 h
same,Activity of enhancing h-IGF-1 production,"[1]; Example 3-(1): 100 µM, cultivation time 24 hour, control 0",39.9 ng/mL
same,Activity of enhancing h-IGF-1 production,"[1]; Example 3-(1): 100 µM, cultivation time 48 hour, control 0",10.0 ng/mL
same,Activity of enhancing h-IGF-1 production,"[1]; Example 3-(1): 100 µM, cultivation time 72 hour, control 0",9.6 ng/mL
same,Activity of enhancing h-IGF-1 production,"[1]; Example 3-(1): 100 µM, cultivation time 96 hour, control 0",4.4 ng/mL
same,Activity of enhancing h-IGF-1 production,"[1]; Example 3-(1): 200 µM, cultivation time 24 hour, control 0",37.9 ng/mL
same,Activity of enhancing h-IGF-1 production,"[1]; Example 3-(1): 200 µM, cultivation time 48 hour, control 0",10.4 ng/mL
same,Activity of enhancing h-IGF-1 production,"[1]; Example 3-(1): 200 µM, cultivation time 72 hour, control 0",9.9 ng/mL
same,Activity of enhancing h-IGF-1 production,"[1]; Example 3-(1): 200 µM, cultivation time 96 hour, control 0",4.2 ng/mL
same,Activity of enhancing IGF-1 production,"[1]; Example 3-(3): 25 µM, cultivation time 1 hour, control 7.2",30.6 ng/mL
same,Activity of enhancing IGF-1 production,"[1]; Example 3-(3): 25 µM, cultivation time 3 hour, control 8.9",29.5 ng/mL
same,Activity of enhancing IGF-1 production,"[1]; Example 3-(3): 25 µM, cultivation time 6 hour, control 6.3",9.6 ng/mL
same,Activity of enhancing IGF-1 production,"[1]; Example 3-(3): 25 µM, cultivation time 12 hour, control 0",0 ng/mL
same,Activity of enhancing IGF-1 production,"[1]; Example 3-(3): 25 µM, cultivation time 24 hour, control 0",0 ng/mL
same,Activity of enhancing IGF-1 production,"[1]; Example 3-(3): 25 µM, cultivation time 48 hour, control 0",0 ng/mL
same,Activity of enhancing IGF-1 production,"[1]; Example 3-(3): 50 µM, cultivation time 1 hour, control 7.2",49.5 ng/mL
same,Activity of enhancing IGF-1 production,"[1]; Example 3-(3): 50 µM, cultivation time 3 hour, control 8.9",42.1 ng/mL
same,Activity of enhancing IGF-1 production,"[1]; Example 3-(3): 50 µM, cultivation time 6 hour, control 6.3",27.8 ng/mL
same,Activity of enhancing IGF-1 production,"[1]; Example 3-(3): 50 µM, cultivation time 12 hour, control 0",0 ng/mL
same,Activity of enhancing IGF-1 production,"[1]; Example 3-(3): 50 µM, cultivation time 24 hour, control 0",0 ng/mL
same,Activity of enhancing IGF-1 production,"[1]; Example 3-(3): 50 µM, cultivation time 48 hour, control 0",0 ng/mL
same,expression of h-IGF-1 (result in words),"[1]; Example 3-(3): 100 µM or more, at 48 hours",expression of h-IGF-1 was observed
same,Activity of enhancing IGF-1 production,[1]; [4],52.8 ng/mL
same,Activity of enhancing IGF-1 production,[1]; [5],47.2 ng/mL
same,Activity of enhancing IGF-1 production,[1]; [6],31 ng/mL
same,Activity of enhancing IGF-1 production,[1]; [7],22.1 ng/mL
same,Activity of enhancing IGF-1 production,[1]; [8],25.6 ng/mL
same,Activity of enhancing IGF-1 production,[1]; [9],32 ng/mL
same,Activity of enhancing IGF-1 production,[1]; [10],59.2 ng/mL
same,Activity of enhancing IGF-1 production,[1]; [11],51.7 ng/mL
same,Activity of enhancing IGF-1 production,[1]; [12],44.4 ng/mL
same,Activity of enhancing IGF-1 production,[1]; [13],42.1 ng/mL
same,Activity of enhancing IGF-1 production,[1]; [14],50.3 ng/mL
same,Activity of enhancing IGF-1 production,[1]; [15],50.2 ng/mL
same,time at which h-IGF production in Hs68 cells became maximal,"[1]; Example 3-(3): 25 to 200 µM, sampled at 1 to 48 hours",1 h
O=C(OC1C=CC(=O)C1OC(=O)c1ccccc1)c1ccccc1 (stereo not shown),death after single oral dose,mouse; [16],no example of death was observed
